According to ChEMBL document CHEMBL4619785, “Advantages of the Parent Nucleoside GS-441524 over Remdesivir for Covid-19 Treatment” (ACS Med Chem Lett, 2020):

Key:
Feline coronavirus = assay: Antiviral activity against Feline corona virus infected in CRFK cells; format: functional, organism-based; conditions: Alphacoronavirus 1, CRFK
SARS-CoV = assay: Antiviral activity against SARS coronavirus infected in primary HAE cells; format: functional, organism-based; conditions: Severe acute respiratory syndrome-related coronavirus
[1] = Cytotoxic activity in HAE cells; format: cell-based; conditions: human
[2] = system: Middle East respiratory syndrome-related coronavirus; assay: Antiviral activity against Middle East respiratory syndrome coronavirus infected in primary HAE cells; format: functional, organism-based
in vivo [3] = conditions: mouse
in vivo [4] = conditions: rhesus monkey, serum, iv

Structure (SMILES)	EC50 (Feline coronavirus)	EC50 (SARS-CoV)	CC50 [1]	EC50 [2]	half-life (in vivo [3])	half-life (in vivo [4])
N#C[C@@]1(c2ccc3c(N)ncnn23)O[C@H](COP(=O)(O)OP(=O)(O)OP(=O)(O)O)[C@@H](O)[C@H]1O [RDV-TP]	780 nM	180 nM	> 100 µM	860 nM		
CCC(CC)COC(=O)[C@H](C)N[P@](=O)(OC[C@H]1O[C@@](C#N)(c2ccc3c(N)ncnn23)[C@H](O)[C@@H]1O)Oc1ccccc1 [REMDESIVIR]		69 nM	> 10 µM	74 nM	25 min	24 min
